pIC50: −log10 of the molar value.
Target: TrkA (Homo sapiens (Human), UniProt P04629)
Assay: TrkA kinase HTRF enzyme inhibition assay
Format: biochemical
Conditions: TrkA pre-incubated with 200 μM ATP
Experimental: TrkA enzyme was obtained from Invitrogen (as catalog numbers PV3144, PV3616, and PV3617, respectively). Enzyme activity was measured in an HTRF® (homogeneous time resolved fluorescence) assay, which detects enzymatic phosphorylation of a biotinylated synthetic peptide substrate (an LCK peptide analog, biotin-ahx-[…], from Genemed Synthesis). Phosphorylation is assessed by HTRF® in the presence of an anti-phosphotyrosine antibody conjugated to Eu^3+ cryptate (Cisbio) as donor fluorophore, and streptavidin conjugated to allophycocyanin (ProZyme) as acceptor fluorophore. The HTRF® signal was detected at two different wavelengths (620 nm and 665 nm) which were used to calculate the fluorescence ratio.
TrkA enzyme was titrated to a concentration optimized to ensure accurate measurement of the initial reaction rate. To allow the TrkA enzyme to undergo activation and auto-phosphorylation, a 20 minute pre-incubation with ATP was carried out (at twice the final targeted enzyme and ATP concentration) prior to addition of test compound and the peptide substrate.
TrkA in vitro assays were performed by pre-incubating TrkA (2-10 nM) with ATP (200 μM) for 20 minutes at ambient temperature in 50 mM HEPES pH 7.4, 10 mM MgCl2, 2 mM MnCl2, 100 μM Na3VO4, 1 mM dithiothreitol, 0.01% BSA (bovine serum albumin). Then, to the activated Trk enzyme mixture was added the test compound in 2% dimethyl sulfoxide. After 10 minutes, the peptide substrate (125 nM) was added. After 1 hour, enzyme reactions were terminated by addition of equal reaction volumes of detection/stop reagent (containing 0.2 μg/mL anti-phosphotyrosine monoclonal antibody labeled with europium from Cisbio (catalog#PT66-K), and 4 μg/mL PhycoLink® Streptavidin-Allophycocyanin conjugate from ProZyme (catalog#PJ25S) in 60 mM EDTA in 40 mM HEPES pH 7.4, 480 mM KF, 0.01% Tween® 20 and 0.1% BSA bovine serum albumin) Reaction plates were stored at 4° C. overnight before reading the fluorescence ratio signal on a PerkinElmer EnVision™ fluorescence detector. Individual reaction wells were stopped at time points to obtain reaction rates. The test inhibitor compounds were assayed in duplicate, at half-log serial dilutions over a range of concentrations (e.g. starting at 50 μM or 5 μM as the high compound concentration). The percent Trk enzyme inhibition was calculated from the initial rates of the inhibited reactions relative to the uninhibited control. IC50 values were calculated by fitting the inhibition percent to the concentration of inhibitor [I] in the assay in equation 1 below, to solve for the IC50. Inhibition %=100[I]/([I]+[IC50]) equation 1

Chain of TrkA (P04629 33-796): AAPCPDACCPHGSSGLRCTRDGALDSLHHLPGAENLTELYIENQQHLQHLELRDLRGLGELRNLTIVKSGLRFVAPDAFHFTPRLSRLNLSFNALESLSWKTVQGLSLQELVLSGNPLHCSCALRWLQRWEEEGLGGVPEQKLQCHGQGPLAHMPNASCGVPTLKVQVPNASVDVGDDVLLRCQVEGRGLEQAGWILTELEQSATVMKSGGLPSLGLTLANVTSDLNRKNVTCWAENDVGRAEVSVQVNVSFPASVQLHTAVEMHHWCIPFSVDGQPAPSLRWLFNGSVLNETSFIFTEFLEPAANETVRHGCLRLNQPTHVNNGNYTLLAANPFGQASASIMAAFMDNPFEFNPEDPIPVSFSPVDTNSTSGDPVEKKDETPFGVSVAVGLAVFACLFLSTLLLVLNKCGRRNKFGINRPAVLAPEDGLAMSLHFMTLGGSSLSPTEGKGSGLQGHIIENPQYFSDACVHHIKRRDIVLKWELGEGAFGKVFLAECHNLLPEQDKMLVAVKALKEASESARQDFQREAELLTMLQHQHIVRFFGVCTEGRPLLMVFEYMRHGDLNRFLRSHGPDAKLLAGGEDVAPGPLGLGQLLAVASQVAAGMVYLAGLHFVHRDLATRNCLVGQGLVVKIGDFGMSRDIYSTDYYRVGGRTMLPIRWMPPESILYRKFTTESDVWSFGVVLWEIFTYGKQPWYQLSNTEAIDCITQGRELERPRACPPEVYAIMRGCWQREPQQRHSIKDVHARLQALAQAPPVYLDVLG

SMILES	pIC50
O=C(Nc1ccc(F)cn1)c1coc2c1C(=O)NCC2 [Example 40, N-(5-fluoropyridin-2-yl)-4-oxo-4,5,6,7-tetrahydrofuro[3,2-c]pyridine-3-carboxamide]	5.49
O=C(Nc1ccc(Cl)cn1)c1coc2c1C(=O)NCC2 [Example 42, N-(5-chloropyridin-2-yl)-4-oxo-4,5,6,7-tetrahydrofuro[3,2-c]pyridine-3-carboxamide]	6.04
CCOc1ccc(NC(=O)c2coc3c2C(=O)NCC3)cn1 [Example 44, N-(6-ethoxypyridin-3-yl)-4-oxo-4,5,6,7-tetrahydrofuro[3,2-c]pyridine-3-carboxamide]	5.35
Cc1n[nH]c2ccc(NC(=O)c3coc4c3C(=O)NCC4)cc12 [Example 45, N-(3-methyl-1H-indazol-5-yl)-4-oxo-4,5,6,7-tetrahydrofuro[3,2-c]pyridine-3-carboxamide]	5.46
Cc1cc2[nH]ncc2cc1NC(=O)c1coc2c1C(=O)NCC2 [Example 46, N-(6-methyl-1H-indazol-5-yl)-4-oxo-4,5,6,7-tetrahydrofuro[3,2-c]pyridine-3-carboxamide]	6.07
CS(=O)(=O)NCCn1cc2cc(NC(=O)c3coc4c3C(=O)NCC4)ccc2n1 [Example 51, N-(2-{2-[(methylsulfonyl)amino]ethyl}-2H-indazol-5-yl)-4-oxo-4,5,6,7-tetrahydrofuro[3,2-c]pyridine-3-carboxamide]	7.72
CN1CCN(CCn2cc3cc(NC(=O)c4coc5c4C(=O)NCC5)ccc3n2)CC1 [Example 52, N-{2-[2-(4-methylpiperazin-1-yl)ethyl]-2H-indazol-5-yl}-4-oxo-4,5,6,7-tetrahydrofuro[3,2-c]pyridine-3-carboxamide]	7.74
O=C(Nc1ccc2c(cnn2CCN2CCCC2)c1)c1coc2c1C(=O)NCC2 [Example 54, 4-oxo-N-{1-[2-(pyrrolidin-1-yl)ethyl]-1H-indazol-5-yl}-4,5,6,7-tetrahydrofuro[3,2-c]pyridine-3-carboxamide]	6.97
CC(O)Cn1cc2cc(NC(=O)c3coc4c3C(=O)NCC4)ccc2n1 (stereo not shown) [Example 55, N-[2-(2-hydroxypropyl)-2H-indazol-5-yl]-4-oxo-4,5,6,7-tetrahydrofuro[3,2-c]pyridine-3-carboxamide]	7.68
CN1CCN(CCn2ncc3cc(NC(=O)c4coc5c4C(=O)NCC5)ccc32)CC1 [Example 57, N-{1-[2-(4-methylpiperazin-1-yl)ethyl]-1H-indazol-5-yl}-4-oxo-4,5,6,7-tetrahydrofuro[3,2-c]pyridine-3-carboxamide]	7.46
CN1CCc2occ(C(=O)Nc3ccc(O)cc3)c2C1=O [Example 59, N-(4-hydroxyphenyl)-5-methyl-4-oxo-4,5,6,7-tetrahydrofuro[3,2-c]pyridine-3-carboxamide]	6.01
CN1CCc2occ(C(=O)Nc3ccc(N4CCCCC4)cc3)c2C1=O [Example 61, 5-methyl-4-oxo-N-[4-(piperidin-1-yl)phenyl]-4,5,6,7-tetrahydrofuro[3,2-c]pyridine-3-carboxamide]	6.71
CN1CCc2occ(C(=O)Nc3ccc4ncccc4c3)c2C1=O [Example 63, 5-methyl-4-oxo-N-(quinolin-6-yl)-4,5,6,7-tetrahydrofuro[3,2-c]pyridine-3-carboxamide]	6.50
CN1CCc2occ(C(=O)Nc3ccc4cn[nH]c4c3)c2C1=O [Example 64, N-(1H-indazol-6-yl)-5-methyl-4-oxo-4,5,6,7-tetrahydrofuro[3,2-c]pyridine-3-carboxamide]	6.87
Cc1cc(NC(=O)c2coc3c2C(=O)N(C)CC3)no1 [Example 66, 5-methyl-N-(5-methyl-1,2-oxazol-3-yl)-4-oxo-4,5,6,7-tetrahydrofuro[3,2-c]pyridine-3-carboxamide]	5.29
CN1CCc2occ(C(=O)Nc3ccc(F)cn3)c2C1=O [Example 68, N-(5-fluoropyridin-2-yl)-5-methyl-4-oxo-4,5,6,7-tetrahydrofuro[3,2-c]pyridine-3-carboxamide]	5.24
COc1ccc(NC(=O)c2coc3c2C(=O)N(C)CC3)cn1 [Example 69, N-(6-methoxypyridin-3-yl)-5-methyl-4-oxo-4,5,6,7-tetrahydrofuro[3,2-c]pyridine-3-carboxamide]	5.36
CCOc1ccc(NC(=O)c2coc3c2C(=O)N(C)CC3)cn1 [Example 72, N-(6-ethoxypyridin-3-yl)-5-methyl-4-oxo-4,5,6,7-tetrahydrofuro[3,2-c]pyridine-3-carboxamide]	5.61

The remaining molecules from weak to strong by pIC50, led by results:

pIC50	SMILES
5.25	N#Cc1cccc(NC(=O)c2coc3c2C(=O)NCC3)c1 [Example 43, N-(3-cyanophenyl)-4-oxo-4,5,6,7-tetrahydrofuro[3,2-c]pyridine-3-carboxamide]
5.44	CN1CCc2occ(C(=O)Nc3cccc(C#N)c3)c2C1=O [Example 71, N-(3-cyanophenyl)-5-methyl-4-oxo-4,5,6,7-tetrahydrofuro[3,2-c]pyridine-3-carboxamide]
5.60	CN1CCc2occ(C(=O)Nc3ccc(Cl)cn3)c2C1=O [Example 70, N-(5-chloropyridin-2-yl)-5-methyl-4-oxo-4,5,6,7-tetrahydrofuro[3,2-c]pyridine-3-carboxamide]
5.68	CC(=O)Nc1ccc(NC(=O)c2coc3c2C(=O)N(C)CC3)cc1 [Example 60, N-(4-acetamidophenyl)-5-methyl-4-oxo-4,5,6,7-tetrahydrofuro[3,2-c]pyridine-3-carboxamide]
5.86	COc1ccc(NC(=O)c2coc3c2C(=O)NCC3)cn1 [Example 41, N-(6-methoxypyridin-3-yl)-4-oxo-4,5,6,7-tetrahydrofuro[3,2-c]pyridine-3-carboxamide]
5.91	O=C(Nc1nc2ccccc2s1)c1coc2c1C(=O)NCC2 [Example 47, N-(1,3-benzothiazol-2-yl)-4-oxo-4,5,6,7-tetrahydrofuro[3,2-c]pyridine-3-carboxamide]
5.97	CN1CCc2occ(C(=O)Nc3ccc(C#N)cc3)c2C1=O [Example 67, N-(4-cyanophenyl)-5-methyl-4-oxo-4,5,6,7-tetrahydrofuro[3,2-c]pyridine-3-carboxamide]
6.08	CN1CCc2occ(C(=O)Nc3cnc4ccccc4c3)c2C1=O [Example 62, 5-methyl-4-oxo-N-(quinolin-3-yl)-4,5,6,7-tetrahydrofuro[3,2-c]pyridine-3-carboxamide]
6.20	CCN(CC)c1ccc(NC(=O)c2coc3c2C(=O)NCC3)cc1 [Example 49, N-[4-(diethylamino)phenyl]-4-oxo-4,5,6,7-tetrahydrofuro[3,2-c]pyridine-3-carboxamide]
6.30	COC(=O)c1n[nH]c2ccc(NC(=O)c3coc4c3C(=O)NCC4)cc12 [Example 48, methyl 5-{[(4-oxo-4,5,6,7-tetrahydrofuro[3,2-c]pyridin-3-yl)carbonyl]amino}-1H-indazole-3-carboxylate]
6.37	N#Cc1ccc(NC(=O)c2coc3c2C(=O)NCC3)cc1 [Example 39, N-(4-cyanophenyl)-4-oxo-4,5,6,7-tetrahydrofuro[3,2-c]pyridine-3-carboxamide]
6.84	COc1ccc(NC(=O)c2coc3c2C(=O)N(C)CC3)c(OC)n1 [Example 65, N-(2,6-dimethoxypyridin-3-yl)-5-methyl-4-oxo-4,5,6,7-tetrahydrofuro[3,2-c]pyridine-3-carboxamide]
6.98	CS(=O)(=O)NCCn1ncc2cc(NC(=O)c3coc4c3C(=O)NCC4)ccc21 [Example 58, N-(1-{2-[(methylsulfonyl)amino]ethyl}-1H-indazol-5-yl)-4-oxo-4,5,6,7-tetrahydrofuro[3,2-c]pyridine-3-carboxamide]
7.04	CC(O)Cn1ncc2cc(NC(=O)c3coc4c3C(=O)NCC4)ccc21 (stereo not shown) [Example 50, N-[1-(2-hydroxypropyl)-1H-indazol-5-yl]-4-oxo-4,5,6,7-tetrahydrofuro[3,2-c]pyridine-3-carboxamide]
7.17	O=C(Nc1ccc2c(cnn2CCO)c1)c1coc2c1C(=O)NCC2 [Example 53, N-[1-(2-hydroxyethyl)-1H-indazol-5-yl]-4-oxo-4,5,6,7-tetrahydrofuro[3,2-c]pyridine-3-carboxamide]
7.31	O=C(Nc1ccc2c(cnn2CCN2CCOCC2)c1)c1coc2c1C(=O)NCC2 [Example 56, N-{1-[2-(morpholin-4-yl)ethyl]-1H-indazol-5-yl}-4-oxo-4,5,6,7-tetrahydrofuro[3,2-c]pyridine-3-carboxamide]
